Laboratory results from the supplement of paper PMC11061612.

Experiments:
Experiment in all cases: Bliss excess, mean over the matrix (fraction); higher = more synergy
[1] = test system: 647-V (Bladder Carcinoma)
Summary of the method: (§1)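 Cell lines in DMEM/F12 or RPMI with 10% FBS were plated in 1536-well plates, held 24 hours at 37°C, 5% CO2, then given two-drug dose matrices for 72 hours (DMSO typically 0.2%). Viability was read by CellTiter-Glo 2.0 luminescence and scaled as inhibition from 0 (vehicle wells) to 1 (blank wells). Combination Emax is the second-highest inhibition in the matrix; Bliss excess is observed combination effect minus expected EA + EB − EA·EB, EA and EB being single-agent effects.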

CS1 (Chondrosarcoma) = test system: CS1 (Chondrosarcoma)
Summary of the method: as §1

[2] = test system: DOK (Oral Cavity Carcinoma)
Summary of the method: as §1

[3] = test system: EKVX (Non-Small Cell Lung Carcinoma)
Summary of the method: as §1

[4] = test system: HCC1143 (Breast Carcinoma)
Summary of the method: as §1

HCC38 (Breast Carcinoma) = test system: HCC38 (Breast Carcinoma)
Summary of the method: as §1

[5] = test system: HCT-116 (Colorectal Carcinoma)
Summary of the method: as §1

[6] = test system: HLE (Hepatocellular Carcinoma)
Summary of the method: as §1

[7] = test system: HOP-92 (Non-Small Cell Lung Carcinoma)
Summary of the method: as §1

[8] = test system: JHH-6 (Hepatocellular Carcinoma)
Summary of the method: as §1

MCF7 (Breast Carcinoma) = test system: MCF7 (Breast Carcinoma)
Summary of the method: as §1

[9] = test system: MES-SA (Other Solid Carcinomas)
Summary of the method: as §1

[10] = test system: NCI-H1688 (Small Cell Lung Carcinoma)
Summary of the method: as §1

[11] = test system: NOMO-1 (Acute Myeloid Leukemia)
Summary of the method: as §1

[12] = test system: PA-TU-8902 (Pancreatic Carcinoma)
Summary of the method: as §1

[13] = test system: SK-UT-1 (Other Solid Carcinomas)
Summary of the method: as §1

[14] = test system: SKN-3 (Head and Neck Carcinoma)
Summary of the method: as §1

[15] = test system: SW948 (Colorectal Carcinoma)
Summary of the method: as §1

[16] = test system: U-118-MG (Low Grade Glioma)
Summary of the method: as §1

[17] = test system: YT (Other Blood Carcinomas)
Summary of the method: as §1

| Structure (SMILES) | Bliss excess [1] | Bliss excess (CS1 (Chondrosarcoma)) | Bliss excess [2] | Bliss excess [3] | Bliss excess [4] | Bliss excess (HCC38 (Breast Carcinoma)) | Bliss excess [5] | Bliss excess [6] | Bliss excess [7] | Bliss excess [8] | Bliss excess (MCF7 (Breast Carcinoma)) | Bliss excess [9] | Bliss excess [10] | Bliss excess [11] | Bliss excess [12] | Bliss excess [13] | Bliss excess [14] | Bliss excess [15] | Bliss excess [16] | Bliss excess [17] |
| --- | --- | --- | --- | --- | --- | --- | --- | --- | --- | --- | --- | --- | --- | --- | --- | --- | --- | --- | --- | --- |
| Cc1c2c(nn1C)CSCc1cc(n(C)n1)CSc1cc(c3ccccc3c1)OCCCc1c(C(=O)O)n(C)c3c-2c(Cl)ccc13 [AZD5991] + CN(C)CCCOc1ccc(-c2ccc3ncc4c(c3c2)n(C2CCOCC2)c(=O)n4C)cn1 [AZD0156] (first compound max 1 µM, 7x7, partner max 1 µM) | 0.015 | 0.0158 | -0.0121 | -0.0139 | -0.0287 | -0.0182 | 0.0431 | 0.0424 | -0.044 | -0.0079 | -0.0063 | 0.017 | -0.0098 | -0.0177 | 0.0116 | -0.0195 | -0.0173 | -0.0205 | -0.0035 | -0.0197 |
| Cc1c2c(nn1C)CSCc1cc(n(C)n1)CSc1cc(c3ccccc3c1)OCCCc1c(C(=O)O)n(C)c3c-2c(Cl)ccc13 [AZD5991] + CC1(C)CCC(CN2CCN(c3ccc(C(=O)NS(=O)(=O)c4ccc(NCC5CCOCC5)c([N+](=O)[O-])c4)c(Oc4cnc5[nH]ccc5c4)c3)CC2)=C(c2ccc(Cl)cc2)C1 [Venetoclax] (first compound max 1 µM, 7x7, partner max 1 µM) | -0.0271 | -0.0418 | 0.0712 | -0.0423 | 0.0051 | -0.0307 | -0.0317 | -0.0061 | 0.0247 | -0.0417 | 0.0623 | -0.0068 | 0.105 | 0.256 | -0.0595 | -0.0095 | -0.03 | -0.003 | -0.0328 | -0.0017 |
| CN(CCO)CC[C@H](CSc1ccccc1)Nc1ccc(S(=O)(=O)NC(=O)c2ccc(N3CCC([C@@H](O)c4ccccc4-c4ccc(Cl)cc4)CC3)cc2)cc1S(=O)(=O)C(F)(F)F [AZD4320] + CCN(CCO)CCCOc1ccc2c(Nc3cc(CC(=O)Nc4cccc(F)c4)[nH]n3)ncnc2c1 [AZD2811] (first compound max 1 µM, 7x7, partner max 1 µM) | 0.114 | 0.0355 | 0.0043 | -0.0476 | -0.0091 | 0.044 | 0.108 | 0.0338 | 0.0573 | 0.0044 | 0.0189 | 0.0657 | 0.0729 | 0.208 | -0.0403 | 0.0705 | -0.0333 | -0.0196 | -0.0148 | -0.0344 |
| Cc1c2c(nn1C)CSCc1cc(n(C)n1)CSc1cc(c3ccccc3c1)OCCCc1c(C(=O)O)n(C)c3c-2c(Cl)ccc13 [AZD5991] + Cn1cnc2c(F)c(Nc3ccc(Br)cc3Cl)c(C(=O)NOCCO)cc21 [Selumetinib] (first compound max 1 µM, 7x7, partner max 3 µM) | 0.0749 | -0.0136 | 0.0495 | -0.0474 | 0.0552 | -0.0386 | -0.0049 | -0.0459 | -0.0332 | -0.0116 | -0.0435 | -0.0247 | 0.0484 | 0.135 | -0.0466 | -0.0063 | 0.0324 | -0.0388 | -0.0054 | -0.0051 |
| Cc1cc2ncnn2cc1Nc1ncc2c(n1)n(C1CCOCC1)c(=O)n2C [AZD7648] + CCN(CCO)CCCOc1ccc2c(Nc3cc(CC(=O)Nc4cccc(F)c4)[nH]n3)ncnc2c1 [AZD2811] (first compound max 10 µM, 7x7, partner max 1 µM) | 0.0618 | -0.0403 | 0.0123 | -0.0199 | -0.003 | -0.0383 | 0.0304 | 0.0271 | -0.0038 | 0.0238 | -0.0135 | 0.0834 | 0.0154 | 0.131 | 0.0315 | 0.0407 | -0.0037 | -0.0979 | 0.0172 | 0.0407 |
| Cc1cc2ncnn2cc1Nc1ncc2c(n1)n(C1CCOCC1)c(=O)n2C [AZD7648] + C[C@@H]1COCCN1C2=NC(=NC(=C2)C3(CC3)[S@](=N)(=O)C)C4=C5C=CNC5=NC=C4 [AZD6738] (first compound max 10 µM, 7x7, partner max 10 µM) | 0.0987 | 0.0024 | 0.0441 | 0.0353 | -0.0328 | 0.0245 | -0.0102 | 0.0049 | 0.0104 | 0.036 | -0.0192 | 0.0541 | 0.0136 | 0.0248 | 0.0186 | 0.0471 | -0.0279 | -0.0422 | -0.0049 | -0.0476 |
| CN(CCO)CC[C@H](CSc1ccccc1)Nc1ccc(S(=O)(=O)NC(=O)c2ccc(N3CCC([C@@H](O)c4ccccc4-c4ccc(Cl)cc4)CC3)cc2)cc1S(=O)(=O)C(F)(F)F [AZD4320] + C[C@@H]1COCCN1C2=NC(=NC(=C2)C3(CC3)[S@](=N)(=O)C)C4=C5C=CNC5=NC=C4 [AZD6738] (first compound max 1 µM, 7x7, partner max 10 µM) | -0.0222 | -0.0499 | -0.0269 | -0.0458 | -0.0812 | 0.0306 | -0.0143 | 0.0036 | 0.0076 | -0.023 | -0.0145 | -0.0382 | -0.0076 | 0.0303 | -0.0378 | 0.0253 | -0.0127 | -0.0873 | -0.0285 | -0.0251 |
| CN(CCO)CC[C@H](CSc1ccccc1)Nc1ccc(S(=O)(=O)NC(=O)c2ccc(N3CCC([C@@H](O)c4ccccc4-c4ccc(Cl)cc4)CC3)cc2)cc1S(=O)(=O)C(F)(F)F [AZD4320] + Cn1cnc2c(F)c(Nc3ccc(Br)cc3Cl)c(C(=O)NOCCO)cc21 [Selumetinib] (first compound max 1 µM, 7x7, partner max 3 µM) | 0.0631 | -0.0054 | -0.0003 | 0.0109 | 0.0112 | -0.0375 | -0.0232 | -0.0142 | -0.0341 | 0.0455 | 0.0377 | 0.0404 | 0.0285 | 0.143 | 0.0696 | – | 0.0268 | -0.0332 | -0.0149 | -0.0834 |
| Cc1c2c(nn1C)CSCc1cc(n(C)n1)CSc1cc(c3ccccc3c1)OCCCc1c(C(=O)O)n(C)c3c-2c(Cl)ccc13 [AZD5991] + C[C@@H]1COCCN1C2=NC(=NC(=C2)C3(CC3)[S@](=N)(=O)C)C4=C5C=CNC5=NC=C4 [AZD6738] (first compound max 1 µM, 7x7, partner max 10 µM) | 0.0802 | 0.0029 | – | 0.0337 | 0.0032 | 0.0528 | 0.0475 | 0.0075 | 0.0003 | -0.079 | 0.0286 | 0.0653 | 0.0406 | -0.0006 | 0.0111 | -0.0115 | 0.0678 | 0.0387 | 0.0187 | -0.0498 |
| Cc1cc2ncnn2cc1Nc1ncc2c(n1)n(C1CCOCC1)c(=O)n2C [AZD7648] + O=C(c1cc(Cc2n[nH]c(=O)c3ccccc23)ccc1F)N1CCN(C(=O)C2CC2)CC1 [Olaparib] (first compound max 10 µM, 7x7, partner max 10 µM) | -0.0098 | -0.0193 | -0.0334 | -0.0563 | -0.0401 | -0.0481 | -0.0502 | -0.036 | -0.0144 | -0.0516 | -0.0625 | 0.06 | -0.02 | -0.0359 | -0.0237 | -0.0331 | -0.0199 | – | -0.0441 | -0.0004 |
| CN(C)CCCOc1ccc(-c2ccc3ncc4c(c3c2)n(C2CCOCC2)c(=O)n4C)cn1 [AZD0156] + C=CCn1c(=O)c2cnc(Nc3ccc(N4CCN(C)CC4)cc3)nc2n1-c1cccc(C(C)(C)O)n1 [AZD1775] (first compound max 1 µM, partner max 1 µM) | 0.0001 | -0.0392 | -0.0143 | -0.0358 | -0.0802 | -0.0963 | -0.0016 | -0.026 | -0.0522 | -0.0798 | -0.0338 | 0.0372 | -0.0033 | 0.004 | -0.0339 | -0.0346 | -0.0276 | – | -0.0322 | -0.0273 |
| C=CCn1c(=O)c2cnc(Nc3ccc(N4CCN(C)CC4)cc3)nc2n1-c1cccc(C(C)(C)O)n1 [AZD1775] + C[C@@H]1COCCN1C2=NC(=NC(=C2)C3(CC3)[S@](=N)(=O)C)C4=C5C=CNC5=NC=C4 [AZD6738] (first compound max 1 µM, partner max 10 µM) | 0.0662 | 0.0087 | 0.0081 | -0.0087 | 0.0108 | -0.0805 | 0.0252 | -0.0148 | -0.0231 | -0.0073 | 0.0332 | 0.01 | 0.0326 | 0.0261 | 0.0315 | 0.0498 | 0.0234 | – | -0.0075 | 0.0305 |
